{"source": "patent US20040122062A1", "about": "“Use of growth hormone secretagogues for treatment of physical performance decline” (Pfizer Inc, priority 2000, published 2004)", "key": {"[1]": {"experiment": "6-Minute Walk Test in a clinical study", "assay_type": "in vivo, human", "details": "all dose groups, week 6 and week 12", "description": "One physical performance endpoint in a clinical study was to determine whether the test compound, 2-amino-N-[2-(3a-(R)-benzyl-2-methyl-3-oxo-2,3,3a,4,6,7-hexahydro-pyrazolo[4,3-c]pyridin-5-yl)-1-(R)-benzyloxymethyl-2-oxo-ethyl]-isobutyramide, L-tartrate, increased the six-minute walk distance in subjects with mild-to-moderate congestive heart failure. There were four dose groups, 3 mg po tid; 6 mg po tid; 10 mg po q am, and placebo.\nThe six-minute walk study was performed at baseline, week 6, and week 12. The purpose of this test was to determine how many feet an individual can walk within six-minutes."}, "[2]": {"details": "obese young males; cited from earlier work"}, "[3]": {"details": "canines during remobilization; cited from earlier work"}, "[4]": {"details": "adult female rats; cited from earlier work"}}, "note": "Where a SMILES comes first, the peptide text is derived from it. [ ]: non-standard residue; d: D form. d2Nal = N[C@H](Cc1ccc2ccccc2c1)C(=O)O; Aib = CC(C)(N)C(=O)O", "data": [{"compound": "CN1N=C2CCN(C(=O)[C@@H](COCc3ccccc3)NC(=O)C(C)(C)N)C[C@@]2(Cc2ccccc2)C1=O.O=C(O)C(O)C(O)C(=O)O", "note": "[2-amino-N-[2-(3a-(R)-benzyl-2-methyl-3-oxo-2,3,3a,4,6,7-hexahydro-pyrazolo[4,3-c]pyridin-5-yl)-1-(R)-benzyloxymethyl-2-oxo-ethyl]-isobutyramide, L-tartrate]", "values": [{"measurement": "six-minute walk distance, change from baseline", "setting": "[1]", "value": "increased in all dose groups at both 6 and 12 weeks"}]}, {"compound": "CC(C)(N)C(=O)N[C@H](COCc1ccccc1)C(=O)N1CCC2(CC1)CN(S(C)(=O)=O)c1ccccc12", "note": "[MK-0677]", "values": [{"measurement": "markers of bone formation and bone resorption", "setting": "[2]", "value": "increases"}, {"measurement": "levels of serum insulin-like growth factor-I", "setting": "[3]", "value": "elevated"}, {"measurement": "size and strength of the quadriceps muscle", "setting": "[3]", "value": "increased"}]}, {"compound": "CC(C)(N)C(=O)N[C@@H](Cc1c[nH]cn1)C(=O)N[C@H](Cc1ccc2ccccc2c1)C(=O)N[C@H](Cc1ccccc1)C(=O)N[C@@H](CCCCN)C(N)=O", "note": "[ipamorelin] (H-[Aib]H[d2Nal][dF]K-NH2)", "values": [{"measurement": "bone mass", "setting": "[4]", "value": "have the capacity to increase bone mass"}]}, {"compound": "GHRP-6", "values": [{"measurement": "bone mass", "setting": "[4]", "value": "have the capacity to increase bone mass"}]}]}
